# Data as given in patent US9611295B2, “Treatment of IL-17 mediated disease by blocking SEFIR-SEFIR interactions” (THE CLEVELAND CLINIC FOUNDATION, priority 2011, dated 2017).
# Assays:
# [1] = tested on: IL-17-induced pulmonary inflammation; assay: IL-17-induced pulmonary inflammation in BALB/c mice; format: in vivo, mouse
# Method: FIG. 5 provides bar graph and staining data showing that a cell-permeable CC′ loop decoy peptide inhibits IL-17- and IL-25-induced pulmonary inflammation. Wild-type (WT) female BALB/c mice (n=4 mice per group) were pretreated with DMSO, scrambled peptide, or the CC′ loop decoy peptide for 4 hours, after which they were administered saline, IL-17, or IL-25 intranasally. Mice were sacrificed and analyzed 16 hours after injection with IL-17 or 4 days after injection with IL-25. […] All experiments were performed three times. *P<0.05.
# It has been shown that Act1 plays an essential role in IL-17- and IL-25-mediated pulmonary inflammation. Thus, the inventors examined whether the Act1 SEFIR domain CC′ loop decoy peptide ameliorated IL-17- and IL-25-induced airway inflammation in vivo. BALB/c mice were pretreated with scrambled peptide or with the Act1 SEFIR domain CC′ loop decoy peptide for 4 hours, after which we injected the mice intranasally with IL-17 or IL-25. […] Consistently, IL-17-induced lung and airway recruitment of granulocytes was reduced in mice pretreated with the CC′ loop decoy peptide compared to that in mice pretreated with the scrambled peptide (FIG. 5C). The lower grade of pulmonary inflammation in the mice treated with the CC′ loop decoy peptide correlated with the decreased IL-17-dependent expression of genes encoding MCP-1 and GM-CSF in the lung tissues (FIG. 5D). […] IL-25-induced lung and airway recruitment of granulocytes, predominantly eosinophils, as well as mucin production, as determined by Periodic acid-Schiff (PAS) staining, were reduced in mice pretreated with the CC′ loop decoy peptide compared to that in mice pretreated with the scrambled peptide (FIG. 5G). The decreased pulmonary inflammation in […] correlated with decreased expression of genes encoding the TH2-type cytokines IL-5 and IL-13 in the lungs (FIG. 5H).
# Intranasal injection of mice with IL-17 and IL-25: Wild-type BALB/c female mice were pretreated with dimethyl sulfoxide (DMSO, the solvent for peptides), scrambled peptide, or the CC′ loop decoy peptide for 4 hours, after which they underwent intranasal administration of saline, IL-17 (4 μg/mouse), or IL-25 (4 μg/mouse). For IL-25-treated mice, decoy peptides were administrated daily through intranasal injection after pretreatment. Mice were anesthetized with isoflurane and sacrificed. BAL fluid was collected 16 hours after injection with IL-17 or 4 days after injection with IL-25. A total of 0.7 ml of HL-1 medium (BioWhittaker®) was used to obtain BAL fluid through trachea with a blunt needle and a 1-ml syringe. Cytospin slide preparations were obtained with a Shandon CytoSpin III Cytocentrifuge (Shandon/Thermo Scientific). Differential leukocyte counts were obtained on cytospin slide preparations after incubation with Diff Quik Giemsa stain. Cytokines in the BAL were analyzed by MultipleX plate (Invitrogen®). H&E and PAS staining were performed on lung tissues after fixation in 10% neutral-buffered formalin and paraffin embedding to detect pulmonary inflammation and for assessment of goblet cell metaplasia and mucin accumulation in airway epithelial cells.
# [2] = tested on: IL-17-mediated expression of Cxcl1; assay: IL-17-mediated Cxcl1 mRNA expression in MEFs, real-time RT-PCR; format: cell-based, mouse; settings: peptides 200 μM for 24 hours, then IL-17 for 3 hours
# Method: (§1) FIG. 4 provides data showing that a cell-permeable CC′ loop decoy peptide disrupts the interaction between Act1 and IL-17RA and inhibits IL-17R and IL-25R signaling. FIG. 4A provides sequences of Antennapedia homeodomain (Antp) (SEQ ID NO: 11)and decoy peptides (SEQ ID NOS 23-25 and 17, respectively, in order of appearance) with the Antp sequence underlined. FIG. 4B provides flow cytometry results based on experiments in which MEFs expressing IL-17RB were incubated for 2 or 24 hours with the indicated FITC-tagged peptides (200 μM) and were then analyzed by flow cytometry. […] The percentages of FITC-positive cells in the treated samples are shown. […] FIG. 4D provides Western blot results of experiments in which MEFs expressing IL-17RB were incubated with the indicated peptides (200 μM) for 24 hours after which they were treated with IL-17 or IL-25 and then analyzed by Western blotting with the indicated antibodies. […] The abundances of Cxcl1 and Il13 mRNAs were then measured by real-time RT-PCR. […]
# (§2) Decoy peptides are based on surface-exposed regions of the primary sequence of a protein to mimic a putative interaction interface. […] These decoy peptides were also tagged at their C-termini with fluorescein isothiocyanate (FITC) to enable their cell-penetrating efficiency to be evaluated by flow cytometric sanalysis. […]
# [3] = tested on: IL-25-mediated expression of Il13; assay: IL-25-mediated Il13 mRNA expression in MEFs, real-time RT-PCR; format: cell-based, mouse; settings: peptides 200 μM for 24 hours, then IL-25 for 3 hours
# Method: as §1, §2
# [4] = 4 hours pretreatment, intranasal IL-17, 16 hours, vs scrambled peptide
sequence,measurement,setting,value
DRQIKIWFQNRRMKWKKLDEDEHGLHTKY [CC′ loop decoy peptide],GM-CSF in BAL fluid,[1]; [4],substantially reduced
same,MCP-1 in BAL fluid,[1]; [4],substantially reduced
same,neutrophil counts in BAL fluid,[1]; [4],substantially reduced
same,neutrophil counts in BAL fluid,"[1]; 4 hours pretreatment, intranasal IL-17, 16 hours, vs scrambled peptide, listed as CC′ peptide",reduced accumulation
same,dose dependence of inhibition of IL-17-induced pulmonary inflammation,[1]; data not shown,dose-dependent manner
same,IL-17-dependent expression of genes encoding MCP-1 and GM-CSF in lung tissues,[1]; real-time RT-PCR,decreased
same,IL-17-induced lung and airway recruitment of granulocytes (H&E),[1]; vs scrambled peptide,reduced
same,inhibition of IL-17-mediated expression of Cxcl1,[2],~50 % inhibition
same,inhibition of IL-25-mediated expression of Il13,[3],~60 % inhibition
